In general, IC50 refers to the concentration that gives 50% inhibition.

Results on 67 molecules are retold here after US20170066759A1, “AROMATIC 5-MEMBERED HETEROCYCLIC DERIVATIVE HAVING TRPV4-INHIBITING ACTIVITY” (Shionogi & Co., Ltd., priority 2012, published 2017).

For the first assay, the target named is T1, human TRPV4 (hTRPV4/CHO cells) (Homo sapiens, UniProt Q9HBA0).
T1 construct: expressed in transfected cells; host or cells: CHO-K1
T1 sequence (Q9HBA0 whole entry): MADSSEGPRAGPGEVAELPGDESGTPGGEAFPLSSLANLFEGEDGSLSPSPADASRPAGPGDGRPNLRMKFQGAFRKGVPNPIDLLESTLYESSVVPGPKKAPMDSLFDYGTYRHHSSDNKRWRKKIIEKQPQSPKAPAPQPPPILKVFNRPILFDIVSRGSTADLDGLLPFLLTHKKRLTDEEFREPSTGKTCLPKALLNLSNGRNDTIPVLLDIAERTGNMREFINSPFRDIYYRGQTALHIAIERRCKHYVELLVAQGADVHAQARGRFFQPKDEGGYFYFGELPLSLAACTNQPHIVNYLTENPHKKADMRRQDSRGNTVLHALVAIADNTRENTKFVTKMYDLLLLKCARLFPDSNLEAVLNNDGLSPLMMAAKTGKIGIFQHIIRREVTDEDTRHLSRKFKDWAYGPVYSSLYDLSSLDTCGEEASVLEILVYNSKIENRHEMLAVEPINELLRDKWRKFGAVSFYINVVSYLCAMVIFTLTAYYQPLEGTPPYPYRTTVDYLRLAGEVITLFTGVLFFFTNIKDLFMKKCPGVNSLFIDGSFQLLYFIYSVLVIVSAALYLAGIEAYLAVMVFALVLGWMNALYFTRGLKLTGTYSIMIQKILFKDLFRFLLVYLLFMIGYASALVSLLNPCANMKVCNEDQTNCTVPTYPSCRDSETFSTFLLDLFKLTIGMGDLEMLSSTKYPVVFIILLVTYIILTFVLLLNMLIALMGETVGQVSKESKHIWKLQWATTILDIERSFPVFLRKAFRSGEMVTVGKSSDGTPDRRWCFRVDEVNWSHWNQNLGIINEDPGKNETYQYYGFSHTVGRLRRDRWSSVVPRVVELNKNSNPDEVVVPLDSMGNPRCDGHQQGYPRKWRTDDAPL
The assay can be described thus: Test Example 1: TRPV4 inhibitory activity (IC50 value), 4α-PDD stimulation, Fluo4 calcium fluorescence (FLIPR TETRA). Type of assay: cell-based. The conditions noted are these: 1 μmol/L 4α-PDD, Fluo4-AM, read-out: TRPV4 inhibitory activity (IC50 value).
For the molecule `Cc1nc(CO)sc1-c1csc(NC(=O)C2CN(c3ccc(C(F)(F)F)cn3)C2)n1` [Compound I-297], the IC50 turned out to be 0.022 µM.

Still in this assay, the particulars now being: Test Example 1, 4α-PDD stimulation, read-out: Test 1 IC50.
In the case of `Cc1nc(CNS(C)(=O)=O)sc1-c1csc(NC(=O)Cc2ccc(S(=O)(=O)C(F)(F)F)cc2)n1` [Compound I-399], the 50% inhibitory concentration (IC50) lay in the range of 1 to 8 µM.

For the molecule `Cc1nc(C)c(-c2csc(NC(=O)Cc3cccc(NC(=O)C(F)(F)F)c3)n2)s1` [Compound I-417], the 50% inhibitory concentration (IC50) was below 0.1 µM.

Turning to `NC(=O)c1nc(CO)c(-c2csc(NC(=O)C3CN(Cc4cccc(C(F)(F)F)c4)C3)n2)s1` [Compound I-324], the IC50 was in the range of 0.1 to 1 µM.

`Cc1nc(C)c(-c2csc(NC(=O)Cc3cccc(NC(=O)C(C)C)c3)n2)s1` [Compound I-415]: the IC50 was in the range of 0.1 to 1 µM.

With `N#CCc1nc(CO)sc1-c1csc(NC(=O)C2CN(c3ncc(C(F)(F)F)cn3)C2)n1` [Compound I-395], the IC50 is below 0.1 µM.

For `Cc1nc(CO)sc1-c1csc(NC(=O)CC2CCN(S(=O)(=O)C(F)(F)F)CC2)n1` [Compound I-453], the 50% inhibitory concentration (IC50) fell in the range of 0.1 to 1 µM.

`Cc1nc(C)c(-c2nc(NC(=O)Cc3c(F)cccc3F)sc2-c2cccc(O)c2)s1` [Compound I-70]: the half-maximal inhibitory concentration (IC50) fell in the range of 1 to 8 µM.

Consider `Cc1nc(C)c(-c2csc(NC(Cc3ccc(Cl)cc3)C(=O)Nc3ccccc3)n2)s1` (racemic) [II-44], for which the concentration for half-maximal inhibition (IC50) fell in the range of 1 to 8 µM.

With `Cc1nc(C)c(-c2nc(NC(=O)Cc3c(F)cccc3F)sc2-c2ccccc2Cl)s1` [Compound I-66], the IC50 lay within 1 to 8 µM.

Consider `Cc1nc(OCCO)sc1-c1csc(NC(=O)Cc2ccc(S(=O)(=O)C(F)(F)F)cc2)n1` [Compound I-461], for which the IC50 fell in the range of 0.1 to 1 µM.

Consider `NC(=O)c1nc(CO)c(-c2csc(NC(=O)C3CN(Cc4ccccc4C(F)(F)F)C3)n2)s1` [Compound I-322], for which the IC50 was 0.1 to 1 µM.

Take `Cc1nc(C)c(-c2csc(NC(=O)Cc3cccc(C(=O)N[C@H](c4ccccc4)C(F)(F)F)c3)n2)s1` [Compound I-489]: the half-maximal inhibitory concentration (IC50) was below 0.1 µM.

In the case of `Cc1nc(C)c(-c2csc(NC(=O)Cc3cccc(NC(=O)C4CCCCC4)c3)n2)s1` [Compound I-416], the IC50 was below 0.1 µM.

On to `Cc1nc(C)c(-c2csc(NC(=O)C3CN(c4cnc(C(F)(F)F)cn4)C3)n2)s1` [Compound I-534], for which the 50% inhibitory concentration (IC50) was below 0.1 µM.

Take `O=C(CO)NCc1nc(CO)sc1-c1csc(NC(=O)Cc2ccc(S(=O)(=O)C(F)(F)F)cc2)n1` [Compound I-383]: the IC50 lay within 0.1 to 1 µM.

As for `COC(=O)N(C)Cc1nc(CO)sc1-c1csc(NC(=O)Cc2ccc(S(=O)(=O)C(F)(F)F)cc2)n1` [Compound I-434], the half-maximal inhibitory concentration (IC50) is below 0.1 µM.

In the case of `Cc1nc(C(C)O)c(-c2csc(NC(=O)Cc3c(F)cccc3F)n2)s1` (centres unmarked) [Compound I-130], the IC50 lay within 0.1 to 1 µM.

As for `Cc1nc(C)c(-c2csc(NC(=O)Cc3ccc(S(=O)(=O)N(C)c4cccc(Cl)c4)cc3)n2)s1` [Compound I-161], the IC50 was below 0.1 µM.

As for `Cc1ccc(-c2csc(NC(=O)Cc3ccc(S(=O)(=O)CC(F)(F)F)cc3)n2)s1` [II-8], the half-inhibitory concentration (IC50) was in the range of 0.1 to 1 µM.

Consider `Cc1nc(C)c(-c2csc(NC(=O)[C@@H]3C[C@H](c4ccccc4)CN3C(=O)C(F)(F)F)n2)s1` [Compound I-271], for which the IC50 is below 0.1 µM.

On to `Cc1nc(C(F)F)sc1-c1csc(NC(=O)C2CC(OCc3ccccc3)C2)n1` (centres unmarked) [Compound I-111], for which the IC50 was 1 to 8 µM.

In the case of `Cc1nc(C)c(-c2csc(NC(=O)[C@@H]3C[C@H](Oc4ccc(Cl)cc4)CN3C(=O)OC(C)(C)C)n2)s1` [Compound I-293], the IC50 was below 0.1 µM.

On to `O=C(Nc1nc(-c2sc(CO)nc2CO)cs1)C1CN(c2ccc(Cl)cc2)C1` [Compound I-343], for which the IC50 is below 0.1 µM.

In the case of `Cc1nc(CO)sc1-c1csc(NC(=O)[C@@H]2C[C@@H](c3ccccc3)CN2C(=O)C(F)(F)F)n1` [Compound I-290], the IC50 was below 0.1 µM.

Consider `COc1cc(CC(=O)Nc2nc(-c3sc(C)nc3C)cs2)cc(C(=O)Nc2ccc(Cl)cc2F)c1` [Compound I-526], for which the 50% inhibitory concentration (IC50) was below 0.1 µM.

As for `Cc1nc(C)c(-c2csc(NC(=O)Cc3ccc(S(=O)(=O)N4CCOCC4)cc3)n2)s1` [Compound I-157], the half-maximal inhibitory concentration (IC50) was in the range of 0.1 to 1 µM.

Turning to `Cc1nc(C(O)CC(=O)O)sc1-c1csc(NC(=O)Cc2c(F)cccc2F)n1` (centres unmarked) [Compound I-135], the IC50 was in the range of 1 to 8 µM.

`Cc1nc(C)c(-c2csc(NC(=O)Cn3cc(-c4cncnc4)cn3)n2)s1` [Compound I-167]: the concentration for half-maximal inhibition (IC50) was 1 to 8 µM.

Consider `Cc1nc(CO)sc1-c1csc(NC(=O)Cc2ccc(S(=O)(=O)C(F)(F)F)cc2)n1` [Compound I-142], for which the IC50 was below 0.1 µM.

`Cc1nc(C)c(-c2csc(NC(=O)Cc3ccc(S(=O)(=O)N(C)c4cccnc4)cc3)n2)s1` [Compound I-165]: the IC50 lay in the range of 0.1 to 1 µM.

Take `Cc1nc(C)c(-c2csc(NC(=O)Cc3ccc(C(F)(F)F)cn3)n2)s1` [Compound I-118]: the 50% inhibitory concentration (IC50) lay in the range of 0.1 to 1 µM.

For `Cc1nc(CO)sc1-c1csc(NC(=O)CN2Cc3ccccc3C2)n1` [Compound I-241], the IC50 lay in the range of 0.1 to 1 µM.

For the molecule `CCCCOC(CNc1nc(-c2sc(C)nc2C)cs1)c1ccc(Cl)cc1` (racemic) [II-50], the IC50 is 0.1 to 1 µM.

As to `COCCOc1cc(CC(=O)Nc2nc(-c3sc(C)nc3C)cs2)cc(C(=O)N[C@H](c2ccccc2)C(F)(F)F)c1` [Compound I-513], the IC50 is below 0.1 µM.

In the case of `Cc1[nH]c(=O)sc1-c1csc(NC(=O)Cc2c(F)cccc2F)n1` [Compound I-93], the IC50 fell in the range of 0.1 to 1 µM.

In the case of `Cc1nc(C)c(-c2csc(NC(=O)[C@H]3C[C@H](Oc4ccc(C(F)(F)F)cc4)C3)n2)s1` [Compound I-365], the IC50 is below 0.1 µM.

As to `COC(=O)c1ccc(CN2CC(C(=O)Nc3nc(-c4sc(C)nc4C)cs3)C2)cc1` [Compound I-263], the IC50 was in the range of 0.1 to 1 µM.

Regarding `Cc1nc(C)c(-c2csc(NC(=O)CCC(=O)N[C@H](c3ccccc3)C(F)(F)F)n2)s1` [Compound I-494], the IC50 lay in the range of 0.1 to 1 µM.

On to `Cc1nc(C(=O)NCCN(C)C)c(-c2csc(NC(=O)Cc3c(F)cccc3F)n2)s1` [Compound I-188], for which the half-maximal inhibitory concentration (IC50) lay within 1 to 8 µM.

For `CC(=O)NC(C)c1nc(CO)sc1-c1csc(NC(=O)Cc2ccc(S(=O)(=O)C(F)(F)F)cc2)n1` (single isomer, unassigned) [Compound I-481], the half-maximal inhibitory concentration (IC50) fell in the range of 0.1 to 1 µM.

Consider `Cc1nc(C)c(-c2csc(NC(=O)Cn3cc(-c4cccc(N(C)C)c4)cn3)n2)s1` [Compound I-149], for which the IC50 was below 0.1 µM.

Turning to `O=C(Cc1ccc(S(=O)(=O)CC(F)(F)F)cc1)Nc1nc(-c2cccs2)cs1` [II-6], the half-maximal inhibitory concentration (IC50) fell in the range of 0.1 to 1 µM.

Consider `Cc1[nH]c(=O)sc1-c1csc(NC(=O)Cc2ccc(S(=O)(=O)C(F)(F)F)cc2)n1` [Compound I-451], for which the IC50 lay in the range of 0.1 to 1 µM.

Regarding `Cc1nc(CO)sc1-c1csc(NC(=O)[C@H]2C[C@@H](F)C2)n1` [Compound I-203], the IC50 fell in the range of 1 to 8 µM.

In the case of `O=C(Nc1nc(-c2sc(CO)nc2CO)cs1)[C@H]1C[C@H](OCc2ccccc2)C1` [Compound I-548], the IC50 lay in the range of 0.1 to 1 µM.

Consider `O=C(Nc1nc(-c2sc(CO)nc2CCCO)cs1)C1CN(c2ccc(C(F)(F)F)cc2)C1` [Compound I-348], for which the concentration for half-maximal inhibition (IC50) is below 0.1 µM.

In the case of `Cc1nc(C)c(-c2csc(NC(=O)C3CN(Cc4cccc(C(F)(F)F)c4)C3)n2)s1` [Compound I-262], the half-maximal inhibitory concentration (IC50) was below 0.1 µM.

On to `Cc1nc(C)c(-c2csc(NC(=O)[C@@H]3C[C@@H](N4CCC(c5ccccc5)CC4)CN3C(=O)OC(C)(C)C)n2)s1` [Compound I-272], for which the IC50 was below 0.1 µM.

In the case of `Cc1nc(CO)sc1-c1csc(NC(=O)C2C[C@H](C(F)(F)F)CN2C(=O)C(F)(F)F)n1` (some centres unmarked) [Compound I-464], the IC50 was 1 to 8 µM.

Regarding `Cc1nc(C)c(-c2csc(NC(=O)C3CN(c4ccc(C(F)(F)F)nn4)C3)n2)s1` [Compound I-284], the half-maximal inhibitory concentration (IC50) fell in the range of 0.1 to 1 µM.

With `COC(=O)NCc1nc(CO)sc1-c1csc(NC(=O)Cc2ccc(S(=O)(=O)C(F)(F)F)cc2)n1` [Compound I-435], the half-inhibitory concentration (IC50) was below 0.1 µM.

In the case of `NC(=O)c1nc(CO)c(-c2csc(NC(=O)Cc3ccc(S(=O)(=O)C(F)(F)F)cc3)n2)s1` [Compound I-255], the IC50 is 1 to 8 µM.

Regarding `Cc1nc(C)c(-c2csc(NC(=O)Cn3cc(C4(O)CCCCC4)nn3)n2)s1` [Compound I-189], the IC50 lay within 1 to 8 µM.

With `O=C(Nc1nc(-c2sc(CO)nc2CO)cs1)[C@@H]1C[C@@H](c2ccccc2)CN1C(=O)OCC(F)(F)F` [Compound I-336], the half-maximal inhibitory concentration (IC50) was 0.1 to 1 µM.

`Cc1nc(C)c(-c2csc(NC(=O)C3CN(c4ccccc4C(F)(F)F)C3)n2)s1` [Compound I-280]: the concentration for half-maximal inhibition (IC50) was below 0.1 µM.

For the molecule `Cc1nc(COC(N)=O)sc1-c1csc(NC(=O)Cc2ccc(S(=O)(=O)C(F)(F)F)cc2)n1` [Compound I-378], the IC50 was in the range of 0.1 to 1 µM.

Take `Cc1nc([C@H](C)O)sc1-c1csc(NC(=O)Cc2cc(Br)cc(C(=O)Nc3ccc(C(F)(F)F)cc3)c2)n1` [Compound I-523]: the concentration for half-maximal inhibition (IC50) is below 0.1 µM.

For the molecule `Cc1nc([C@H](C)O)sc1-c1csc(NC(=O)Cc2ccc(S(=O)(=O)C(F)(F)F)cc2)n1` [Compound I-454], the IC50 was below 0.1 µM.

Turning to `Cc1nc(CO)sc1-c1csc(NC(=O)C2CN(c3ccc(C(F)(F)F)cn3)C2)n1` [Compound I-297], the 50% inhibitory concentration (IC50) was below 0.1 µM.

For the molecule `Cc1nc(C)c(-c2csc(NC(=O)CN3CCOC(c4ccccc4)C3)n2)s1` (centres unmarked) [Compound I-170], the half-inhibitory concentration (IC50) was in the range of 0.1 to 1 µM.

Take `CC(=O)Nc1cccc(CC(=O)Nc2nc(-c3sc(C)nc3C)cs2)c1` [Compound I-414]: the IC50 fell in the range of 1 to 8 µM.

Take `Cc1nc(C)c(-c2nsc(NC(=O)Cc3ccc(C(O)C(F)(F)F)cc3)n2)s1` (centres unmarked) [Compound I-544]: the 50% inhibitory concentration (IC50) lay in the range of 1 to 8 µM.

With `CCCCCCNC(=O)c1sc(NC(=O)Cc2c(F)cccc2F)nc1-c1sc(C)nc1C` [Compound I-87], the IC50 was 1 to 8 µM.

As for `Cc1nc(CO)sc1-c1csc(NC(=O)C2CN(S(=O)(=O)CCC(F)(F)F)C2)n1` [Compound I-433], the half-inhibitory concentration (IC50) was 0.1 to 1 µM.

Turning to `Cc1nc(CS(C)(=O)=O)c(-c2csc(NC(=O)Cc3ccc(S(=O)(=O)C(F)(F)F)cc3)n2)s1` [Compound I-485], the half-maximal inhibitory concentration (IC50) lay in the range of 0.1 to 1 µM.

As to `Cc1nc(CO)sc1-c1csc(NC(=O)[C@H]2C[C@H](OCC(F)(F)F)C2)n1` [Compound I-357], the IC50 is below 0.1 µM.

In the case of `CC(=O)NCc1nc(C)c(-c2csc(NC(=O)Cc3ccc(S(=O)(=O)C(F)(F)F)cc3)n2)s1` [Compound I-397], the IC50 lay in the range of 0.1 to 1 µM.
